# Where no end group is shown, it is not given here.
# Columns and labels:
# staphylococcus aureus = conditions: background statement; cited from earlier work
# red blood cells [1] = experiment: Hemolysis test in vitro; type: cell-based, human (healthy volunteers); conditions: FIG. 5B
# Procedure: In the hemolysis test, DP7 and DP7-C at the same concentration were detected for the hemolysis of red blood cells. • 1. Take the blood of healthy volunteers and put into an anticoagulant tube and gently mix. • 2. Take out the anticoagulant, add isometric physiological saline, mix slowly and evenly, centrifuge at 400×g for 10 min, and discard the supernatant. • 3. Slowly mix the red blood cells and wash with PBS, centrifuge at 400×g for 10 min, discard the supernatant, and wash the cell precipitate with PBS for three times. • 4. Dilute with PBS to obtain 20% (v/v) red blood cell solution, which can be used immediately or stored at 4° C. for about 2 weeks (without hemolysis). • 5. Dilute the drug into a series of concentration gradients with PBS, add 100 μL of drug into a 96-well plate, take 100 μL of 2% Twain 20 as the positive control, add 100 μL of PBS to the negative control. Repeat the process 3 times for each concentration of drug. • 6. Dilute 20% (v/v) of red blood cell solution with PBS according to the volume ratio of 1:20, mix evenly and add to a 96-well plate, with the drug concentration of 100, 200, 400, 600, 800, 1000, 1200, 1600 μg/mL respectively, and incubate at 37° C. for 1 h. • 7. Incubate the mixture of drugs and red blood cells, centrifuge at 900×g for 10 min, add 160 μL of the supernatant to a new 96-well plate, and read the absorbance value at OD 450 nm. • 8. According to the absorbance value of A450, calculate the percentage of hemolysis corresponding to each concentration of drugs.
# The calculation formula of the percentage of hemolysis is: […]
# red blood cells [2] = conditions: cited from earlier work
# [3] = tested on: Staphylococcus aureus 33591; experiment: Intra-abdominally infected mouse model; type: in vivo; conditions: intravenous administration; DP7-C 1 mg/kg, VAN 20 mg/kg; vs NS group, p<0.01
# Procedure: The anti-infection activity of DP7-C is determined by the intra-abdominally infected models. […]
# The experimental steps are as follows: • (1) Activate Staphylococcus aureus 33591 with MHB the day before the experiment, wash the activated strains twice with normal saline on the day of the experiment, and determine the concentration of bacterial liquid for later use. • (2) To establish an abdominally infected mouse model, intraperitoneally inject the bacterial solution of 1.5×10^8 cfu/0.5 mL into each mouse. • (3) Intravenously inject the drug by group after one hour of infection, 0.1 mL/mouse. • (4) 24 h later, intraperitoneally inject 5 mL of normal saline into the mouse, gently massage the abdomen, kill the mouse and disinfect with 75% alcohol. After 5 min, scissor the abdominal cavity epithelium, make a small opening in the abdominal cavity, draw ascites as much as possible from the opening with a 1 ml syringe, and then transfer to a sterile EP tube for mixing. • (5) Dilute with normal saline at a dilution of, for example, 10×, 100×, 1000× and 10000×; take three bacterial solutions with suitable concentrations, 20 μL each, coat the MHA plate and incubate in a bacteria incubator overnight. • (6) Select a plate with 20-200 colonies and convert and calculate the amount of bacteria per milliliter in 5 milliliters of ascites.
compound,measurement,setting,value
"VQWRIRVAVIRK-NH2 [DP7, VQWRIRVAVIRK-NH2]",therapeutic effect in vivo,staphylococcus aureus,very good therapeutic effect
same,appearance of hemolysis test,red blood cells [1],red blood cells are lysed
same,lethality,"red blood cells [2]; high concentration, intravenous injection",kill mice
same,hemolysis of red blood cells,"red blood cells [2]; mouse, in vivo, iv",cause hemolysis of red blood cells
"CN[C@H](CC(C)C)C(=O)N[C@H]1C(=O)N[C@@H](CC(N)=O)C(=O)N[C@H]2C(=O)N[C@H]3C(=O)N[C@H](C(=O)N[C@H](C(=O)O)c4cc(O)cc(O)c4-c4cc3ccc4O)[C@H](O)c3ccc(c(Cl)c3)Oc3cc2cc(c3O[C@@H]2O[C@H](CO)[C@@H](O)[C@H](O)[C@H]2O[C@H]2C[C@](C)(N)[C@H](O)[C@H](C)O2)Oc2ccc(cc2Cl)[C@H]1O [VAN, Vancomycin, reference compound]",average colony forming unit (CFU) of Staphylococcus aureus,[3],significantly lower than those in NS group
